Measured values: patent US20240252557A1, “MULTIBIOTIC SUPPLEMENTS” (Natals, Inc., priority 2023, published 2024)

Test system: Caco-2/THP1-Blue cell co-cultures
Assay: Transepithelial electrical resistance (TEER) of Caco-2/THP1-Blue co-cultures, model of mild intestinal barrier disruption
Format: cell-based, human
Conditions: 48 h colonic fermentation samples, filtered and sterilized; TEER after 24 h
Excerpt: This study used an in vitro cell co-culture to create a model of mild intestinal barrier disruption. This method utilizes a co-culture model of intestinal epithelial-like cells (Caco-2 cells) and human monocytes/macrophages (THP1 cells) and is based on the work of Satsu and colleagues (PMID: 17010338) and is described by Daguet et al. (doi: 10.1016r.jff.2015.11.005). Caco-2 cells are allowed to grow into a monolayer that has physiological properties of the intestinal lining, including tight junctions. Tight junction proteins keep adjacent epithelial cells together, which forms a barrier that is virtually impermeable to macromolecules. The “tightness” of tight junctions can be measured as transepithelial electrical resistance (TEER), with a high TEER corresponding to a tighter barrier. THP1 monocytes were originally isolated from a human patient with acute leukemia. When stimulated with phorbol 12-myristate 13-acetate (PMA), these cells develop into macrophage-like cells that are able to adhere and are primed for toll-like receptor (TLR) signaling. […] TEER was measured after pre-treatment of the cell co-cultures, representing a baseline (0 hour) value. […] Changes in TEER values were measured after 24 hours.
TEER was measured 24 h after pre-treatment of the co-cultures and each 24 h value was normalized to its corresponding Oh value and is shown as percentage of initial value. […]

Structure (SMILES): CCCC(=O)OCC(COC(=O)CCC)OC(=O)CCC [tributyrin]
- barrier integrity (TEER) compared to the blank control: improved barrier integrity
